US7611721B1, “Adjuvant combination formulations” (priority 2000, dated 2009)
Where two headings read alike, the source gives them in different places.

How the values were obtained:
T1SP10MN(A) (−Cys) [1] = test system: T1SP10MN(A) (−Cys)
Description: Mice were immunized subcutaneously in the rump, in a total volume of 0.2 ml equally divided on each side of the tail. Immunizations were administered at varying time intervals, as indicated below. Antigen and cytokines were diluted in phosphate buffered saline to the appropriate concentrations and formulated with adjuvants less than 16 hours prior to immunization, under sterile conditions. Vaccines were mixed by gentle agitation, and stored at 4° C. Formulations were mixed by vortex immediately prior to immunization.
Reciprocal anti-HIV peptide-specific IgG endpoint titers were measured from pooled serum (n=5 Balb/c) at the indicated time points after initial immunization. Mice were immunized subcutaneously in the rump with 25 μg of T1SP10MN(A) (−Cys), unless otherwise indicated, on day 0, and on day 27. For recipients of Freund's adjuvants, mice were primed with peptide emulsified in CFA, and boosted with IFA. MPL™ SE was provided as an emulsion containing 2% squalene oil and 50 μg MPL™ per dose. SE is an oil-in-water emulsion vehicle consisting of squalene, glycerol, and an emulsifying agent. Recombinant murine IL-12 was delivered at 50 ng/mouse. Recombinant murine GM-CSF was delivered at 10 μg/mouse.
Reciprocal endpoint IgG subclass titers were measured from pooled serum (n=5 Balb/c) six weeks after initial immunization, two weeks after secondary immunization. Mice were immunized subcutaneously in the rump with 25 μg of peptide, unless otherwise indicated. For recipients of Freund's adjuvants, mice were primed with peptide emulsified in complete Freund's adjuvant, and boosted with incomplete Freund's adjuvant on weeks four and six. MPL™ SE was provided as an emulsion containing 2% squalene oil and 50 μg MPL™ per dose. SE is an oil-in-water emulsion vehicle consisting of squalene, glycerol, and an emulsifying agent. Recombinant murine IL-12 was delivered at 50 ng/mouse. Recombinant murine GM-CSF was delivered at 10 μg/mouse.
Mice were immunized subcutaneously in the rump, in a total volume of 0.2 ml equally divided on each side of the tail. Immunizations were administered on days 0 and 21 with 25 μg of the HIV peptide, together with the indicated amount of adjuvant(s).
Reciprocal anti-peptide IgG endpoint titers were measured from either geometric means from individual mice (GMT) or from pooled serum (n=5 Balb/c), obtained 14 days after the second immunization. IgG1 and IgG2a subclass endpoint titers were also measured from pooled serum.

[2] = test system: Neisseria gonorrhoeae Porin B protein; assay: Reciprocal anti-Porin B protein serum IgG endpoint subclass titers; type: in vivo, Swiss-Webster mice; details: for Reciprocal anti-Porin B Protein IgG1 endpoint titer, Week 3 / Reciprocal anti-Porin B Protein IgG1 endpoint titer, Week 6 / Reciprocal anti-Porin B Protein IgG2a endpoint titer, Week 3 / Reciprocal anti-Porin B Protein IgG2a endpoint titer, Week 6 / Reciprocal anti-Porin B Protein IgG endpoint titer, Week 3 / Reciprocal anti-Porin B Protein IgG endpoint titer, Week 6: 1 μg Porin B s.c. week 0 and 4
Description: Outbred Swiss-Webster mice were divided into five groups of ten mice each. Each group received 1 μg of recombinant Porin B protein (from strain FA1090 with 16 amino acids at the amino-terminus from a phage, followed by the mature form of the Porin B protein). […] Mice were immunized subcutaneously in the rump with a total volume of 0.2 ml, divided equally into each of two sites at the base of the tail/rump. Immunizations were administered at week 0 and week 4.
Mice were bled the day prior to each immunization, and at 13 days after the final immunization. Serum was analyzed from pools from mice within groups. […] All day 0 pre-immunization titers were less than 50.
Individual week 6 IgG titer geometric means against the recombinant Porin B protein were also determined.
(§1) Outbred Swiss-Webster mice were divided into six groups of five mice each. Each group received 1 μg of recombinant Porin B protein (from strain FA1090 with 16 amino acids at the amino-terminus from a phage, followed by the mature form of the Porin B protein). […] Mice were immunized subcutaneously in the rump with a total volume of 0.2 ml. Immunizations were administered at week 0 and week 4.
(§2) Mice were bled the day prior to each immunization, and at 13 days after the final immunization. Serum was analyzed from pools from mice within groups. […] All day 0 pre-immunization titers were less than 50. The starting dilution for vaginal lavage analysis was 1/5.

[3] = test system: Neisseria gonorrhoeae Porin B protein; assay: Vaginal wash anti-Porin B protein IgG and IgA titers; type: in vivo, Swiss-Webster mice; details: Experiment 11; Swiss-Webster; starting dilution 1/5
Description: as §1, §2

RSV F protein = details: pooled serum n=5 Balb/c
Sequence of RSV F protein (P03420 137-574): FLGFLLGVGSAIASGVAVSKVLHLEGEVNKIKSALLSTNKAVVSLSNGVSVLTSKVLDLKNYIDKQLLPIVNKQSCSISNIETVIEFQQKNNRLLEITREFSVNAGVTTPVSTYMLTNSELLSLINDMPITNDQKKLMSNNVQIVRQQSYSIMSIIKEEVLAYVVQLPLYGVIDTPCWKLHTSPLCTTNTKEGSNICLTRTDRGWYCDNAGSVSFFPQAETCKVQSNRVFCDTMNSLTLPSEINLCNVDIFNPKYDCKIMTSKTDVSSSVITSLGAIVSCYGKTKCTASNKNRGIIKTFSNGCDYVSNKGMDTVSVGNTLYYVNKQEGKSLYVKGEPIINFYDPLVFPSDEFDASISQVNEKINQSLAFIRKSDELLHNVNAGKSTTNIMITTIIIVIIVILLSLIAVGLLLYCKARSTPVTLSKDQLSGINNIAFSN

T1SP10MN(A) (−Cys) [4] = test system: T1SP10MN(A) (−Cys); remark: listed apart in the source
Description: Animals were bled prior to initial immunization, and at indicated time points. Serum was analyzed from individual mice, or as pools from mice within groups. Vaginal lavage was performed on euthanized mice to assess antibody levels. This was accomplished by instillation of 75:1 RPMI-10 into the vaginal vault of female mice using a 200:1 pipette. The vault was washed by repeated delivery and removal of fluid, which was then added to 10:1 of FBS. Vaginal lavage were analyzed as pools.
For analysis of HIV peptide-specific antibody and subclass distribution, peptide was suspended in either carbonate buffer (15 mM Na2CO3, 35 mM NaHCO3, pH 9.6), or PBS, at a concentration of 1 μg/ml and plated to 96 well microtiter plates (Nunc) in a volume of 100:1. After overnight incubation at 37° C., plates were washed, and blocked (0.1% gelatin/PBS) at room temperature for 2-4 hours. ELISA plates were washed with wash buffer (PBS, 0.1% Tween™20) before addition of serially diluted serum (PBS, 0.1% gelatin, 0.05% Tween™20, 0.02% sodium azide). After a four hour incubation, wells were washed and appropriate dilutions of biotinylated anti-isotype/subclass antibodies were added for incubation at 4° C. overnight. Wells were washed and incubated with strepavidin-conjugated horseradish peroxidase. After incubation, wells were washed, and developed with ABTS. Wells were read at 405 nm. Titers were standardized using control sera.
Vaginal IgG and IgA anti-peptide antibody titers were measured from lavage obtained 2 weeks after final immunization. Groups of 5 Balb/c female mice were immunized with 25 μg T1SP10MN(A) (−Cys) and the indicated adjuvant formulations on days 0, 28, and 42. Vaginal antibody titers were determined from pool d lavage fluid.
HIV peptide-specific vaginal lavage endpoint reciprocal endpoint IgG and IgA antibody titers were measured from pooled serum (n=5 Balb/c) 15 days after secondary immunization. […] Aqueous MPL™ was delivered at 50 μg per dose. Recombinant murine IL-12 was delivered at 40 ng/mouse. Recombinant murine GM-CSF was delivered at 10 μg/mouse.
Vaginal IgG and IgA anti-peptide antibody titers were measured from lavage 41 days after initial immunization, 13 days after secondary immunization.

[5] = Experiment 2, pooled serum n=5 Balb/c, 14 days after second immunization
[6] = Experiment 4, individual Balb/c mouse, day 41, 13 days after secondary immunization (days 0 and 28)
[7] = Experiment 4, pooled serum n=5 Balb/c, day 41, 13 days after secondary immunization
[8] = Experiment 5, pooled serum n=5 Balb/c, immunized days 0 and 22, bled day 42
[9] = Experiment 10, pooled serum n=10 Swiss-Webster
[10] = Experiment 11, pooled serum n=5 Swiss-Webster
[11] = Experiment 12, 3 μg F protein i.m. week 0 and 4
[12] = Experiment 13, F protein week 0 and 4
[13] = Experiment 14, 3 μg F protein s.c. week 0 and 4
[14] = Experiment 2, pooled, n=5 Balb/c, 15 days after secondary immunization
[15] = Experiment 4, Balb/c, day 41, 13 days after secondary immunization

## 3-O-deacylated monophosphoryl lipid A [MPL ™]
T1SP10MN(A) (−Cys) [1]; Experiment 2, geometric mean of individual Balb/c mice, 14 days after second immunization
  Reciprocal anti-T1SP10MN(A) (−Cys) IgG (GMT) endpoint titer: 241,918
T1SP10MN(A) (−Cys) [1]; [5]
  Reciprocal anti-T1SP10MN(A) (−Cys) IgG1 (pool) endpoint titer: 134,428
  Reciprocal anti-T1SP10MN(A) (−Cys) IgG2a (pool) endpoint titer: 7,127
T1SP10MN(A) (−Cys) [1]; Experiment 2, pooled serum n=5 Balb/c, immunized days 0 and 21, 14 days after second immunization
  Reciprocal anti-T1SP10MN(A) (−Cys) IgG (pool) endpoint titer: 219,705
T1SP10MN(A) (−Cys) [1]; [6]
  IgG serum titer specific for T1SP10MN(A) (−Cys), Mouse #1: 50
  IgG serum titer specific for T1SP10MN(A) (−Cys), Mouse #2: 151,846
  IgG serum titer specific for T1SP10MN(A) (−Cys), Mouse #3: 249,054
  IgG serum titer specific for T1SP10MN(A) (−Cys), Mouse #4: 436,378
  IgG serum titer specific for T1SP10MN(A) (−Cys), Mouse #5: 1,245,470
T1SP10MN(A) (−Cys) [1]; Experiment 4, n=5 Balb/c, day 41, 13 days after secondary immunization
  Geometric Mean IgG serum titer specific for T1SP10MN(A) (−Cys), GMT: 63,452
T1SP10MN(A) (−Cys) [1]; [7]
  Reciprocal anti-T1SP10MN(A) (−Cys) IgG1 endpoint titer: 33,544
  Reciprocal anti-T1SP10MN(A) (−Cys) IgG2a endpoint titer: 212
  Reciprocal anti-T1SP10MN(A) (−Cys) IgG2b endpoint titer: <100
T1SP10MN(A) (−Cys) [1]; Experiment 5, geometric mean n=5 Balb/c, immunized days 0 and 22, bled day 42
  Reciprocal anti-T1SP10MN(A) (−Cys) IgG GMT: 2,032,441
T1SP10MN(A) (−Cys) [1]; [8]
  Reciprocal anti-T1SP10MN(A) (−Cys) IgG1 endpoint titer: 1,314,771
  Reciprocal anti-T1SP10MN(A) (−Cys) IgG2a endpoint titer: 9,688
  Reciprocal anti-T1SP10MN(A) (−Cys) IgG2b endpoint titer: 13,716
  Reciprocal anti-T1SP10MN(A) (−Cys) IgG endpoint titer: 2,635,118
[2]; [9]
  Reciprocal anti-Porin B Protein IgG1 endpoint titer, Week 3: 171
  Reciprocal anti-Porin B Protein IgG1 endpoint titer, Week 6: 23,465
  Reciprocal anti-Porin B Protein IgG2a endpoint titer, Week 3: 318
  Reciprocal anti-Porin B Protein IgG2a endpoint titer, Week 6: 20,422
  Reciprocal anti-Porin B Protein IgG endpoint titer, Week 3: 3,381
  Reciprocal anti-Porin B Protein IgG endpoint titer, Week 6: 431,529
[2]; Experiment 10, week 6, Swiss-Webster
  Individual IgG titers against recombinant Porin B protein, Geometric Mean: 217,114
[2]; [10]
  Reciprocal anti-Porin B Protein IgG1 endpoint titer, Week 3: 500
  Reciprocal anti-Porin B Protein IgG1 endpoint titer, Week 6: 76,640
  Reciprocal anti-Porin B Protein IgG2a endpoint titer, Week 3: 1,925
  Reciprocal anti-Porin B Protein IgG2a endpoint titer, Week 6: 60,910
  Reciprocal anti-Porin B Protein IgG endpoint titer, Week 3: 5,656
  Reciprocal anti-Porin B Protein IgG endpoint titer, Week 6: 265,127
[3]
  Vaginal Wash IgA titer, anti-Porin B Protein: 5
  Vaginal Wash IgG titer, anti-Porin B Protein: 54
RSV F protein; [11]
  Reciprocal anti-RSV F Protein IgG1 endpoint titer, Week 3: 28,134
  Reciprocal anti-RSV F Protein IgG1 endpoint titer, Week 6: 900,863
  Reciprocal anti-RSV F Protein IgG2a endpoint titer, Week 3: 11,882
  Reciprocal anti-RSV F Protein IgG2a endpoint titer, Week 6: 1,057,108
  Reciprocal anti-RSV F Protein IgG endpoint titer, Week 3: 124,197
  Reciprocal anti-RSV F Protein IgG endpoint titer, Week 6: 3,310,838
RSV F protein; [12]
  Reciprocal anti-RSV F Protein IgG1 endpoint titer, Week 3: 21,930
  Reciprocal anti-RSV F Protein IgG1 endpoint titer, Week 6: 1,384,927
  Reciprocal anti-RSV F Protein IgG2a endpoint titer, Week 3: 61,253
  Reciprocal anti-RSV F Protein IgG2a endpoint titer, Week 6: 955,685
  Reciprocal anti-RSV F Protein IgG endpoint titer, Week 3: 104,702
  Reciprocal anti-RSV F Protein IgG endpoint titer, Week 6: 6,153,833
RSV F protein; [13]
  Reciprocal anti-RSV F Protein IgG1 endpoint titer, Week 3: 55,767
  Reciprocal anti-RSV F Protein IgG1 endpoint titer, Week 6: 402,128
  Reciprocal anti-RSV F Protein IgG2a endpoint titer, Week 3: 8,397
  Reciprocal anti-RSV F Protein IgG2a endpoint titer, Week 6: 170,252
  Reciprocal anti-RSV F Protein IgG endpoint titer, Week 3: 26,179
  Reciprocal anti-RSV F Protein IgG endpoint titer, Week 6: 3,467,097
T1SP10MN(A) (−Cys) [4]; [14]
  Vaginal lavage reciprocal anti-T1SP10MN(A) (−Cys) IgA endpoint titer: <10
  Vaginal lavage reciprocal anti-T1SP10MN(A) (−Cys) IgG endpoint titer: <10
T1SP10MN(A) (−Cys) [4]; [15]
  Vaginal lavage IgA anti-T1SP10MN(A) (−Cys) antibody titer: <10
  Vaginal lavage IgG anti-T1SP10MN(A) (−Cys) antibody titer: 12
